# e = 2'-O-(2-methoxyethyl) (MOE); d = 2'-deoxy (DNA)
# Assays:
# [1] = Plasma cholesterol and triglyceride levels in huApoB/huCETP/mLDLr mouse model (Example 7); assay type: in vivo, mice
# Excerpt: The huApoB^+/−huCETP^+/−mLDLr^+/− mice were divided into five groups of 5-7 mice each. […] The saline-injected group served as the control group to which oligonucleotide-treated groups were compared. […] This group served a negative control for the effects of the antisense oligonucleotides against CETP. The groups are further described in Table 27, and are designated letters A-F, by which they will be referred from henceforth.
# HDL and LDL cholesterol were individually measured by HPLC. Triglyceride levels were measured on weeks 0, 3 and 6 with the use of a commercially available triglyceride kit (DCL Triglyceride Reagent; Diagnostic Chemicals Ltd.).
# CETP mRNA = assay: Dose response, liver CETP mRNA in huCETP transgenic mice on Western diet (Example 9); assay type: in vivo, human; conditions: s.c. 6 weeks
# Description: Male transgenic mice were maintained on a 12-hour light/dark cycle and were fed ad libitum the Western diet (TD88137; 42% cal from fat, 0.2% cholesterol; Harlan Laboratories, Indianapolis, Ind.). Animals were acclimated for at least 7 days in the research facility before initiation of the experiment and were maintained on this diet throughout the study period. Antisense oligonucleotides (ASOs) were prepared in buffered saline (PBS) and sterilized by filtering through a 0.2 micron filter. Oligonucleotides were dissolved in 0.9% PBS for injection.
# (§1) Another group received subcutaneous injections of control oligonucleotide ISIS 141923 at a dose of 50 mg/kg/week for 6 weeks. One group of mice received subcutaneous injections of PBS for 6 weeks. The PBS-injected group served as the control group to which treatment groups were compared.
# Twenty four hours after the final dose, the animals were sacrificed and liver tissue was isolated. Liver RNA was isolated for real-time PCR analysis of CETP. The primer probe sets hCETP and hCETP2_LTS00182 were individually used to measure CETP levels. As presented in Table 43, treatment with ISIS 349517 reduced CETP mRNA expression in a dose-dependent manner. Both primer probe sets produced similar results. The RNA expression levels were normalized to murine Cyclophilin. The results are expressed as percent inhibition of CETP mRNA, relative to the PBS control.
# ABCA1 = assay: Liver ABCA1 mRNA expression (Example 9); assay type: in vivo, mice; conditions: percentage increase or decrease compared to PBS control, s.c. 6 weeks
# Description: as §1
# Liver RNA was isolated for real-time PCR analysis of ABCA1, ApoAI, and SR-B1. ATP-binding cassette transporter ABCA1 (member 1 of human transporter sub-family ABCA), also known as the cholesterol efflux regulatory protein (CERP) is a protein which in humans is encoded by the ABCA1 gene (Luciani, M. F. et al., Genomics. 1994. 21: 150-9). This transporter is a major regulator of cellular cholesterol and phospholipid homeostasis. Apolipoprotein A-I is a protein that in humans is encoded by the APOA1 gene (Breslow, J. L. et al., Proc. Natl. Acad. Sci. USA 1982. 79: 6861-5). Apolipoprotein A-I is the major protein component of HDL in plasma. The protein promotes cholesterol efflux from tissues to the liver for excretion. Scavenger receptor class B, type I (SR-BI) is an integral membrane protein found in numerous cell types/tissues, including the liver and adrenal (Acton, S. L. et al., J. Biol. Chem. 1994. 269: 21003-21009). It is best known for its role in facilitating the uptake of cholesteryl esters from high-density lipoproteins in the liver. Therefore, all three genes have a role in HDL regulation.
# The primer probe set RTS1204 (forward sequence […], designated herein as SEQ ID NO: 122, reverse sequence […], designated herein as SEQ ID NO: 123, probe sequence AGGCCCAGACCTGTAAAGGCGAAGX, with X a fluorophore, designated herein as SEQ ID NO: 124) was used to measure abca1 levels. The primer probe set RTS14737 (forward sequence […], designated herein as SEQ ID NO: 125, reverse sequence […], designated herein as SEQ ID NO: 126, probe sequence CTGCAGGAACGGCTGGGCCCX, with X a fluorophore, designated herein as SEQ ID NO: 127) was used to measure apoA1 levels. The primer probe set mSRB-1 (forward sequence […], designated herein as SEQ ID NO: 128, reverse sequence ATGCGACTTGTCAGGCTGG, designated herein as SEQ ID NO: 129, probe sequence CGTGGAGAACCGCAGCCTCCATTX, with X a fluorophore, designated herein as SEQ ID NO: 130) was used to measure sr-b1 levels. The results are presented in Table 44 as percentage increase or decrease in the respective expression levels compared to the PBS control. Both primer probe sets produced similar results. The RNA expression levels were normalized to murine Cyclophilin. Treatment with ISIS 349517 caused an increase in ApoA1 and SR-B1 levels.
# CETP protein = assay: Plasma CETP protein by ELISA, dose response (Example 9); assay type: in vivo, human; conditions: huCETP transgenic mice, Western diet, s.c. 6 weeks
# Description: as §1
# Plasma CETP protein levels were measured by ELISA (Alpco). The results are expressed as percent inhibition of CETP protein, relative to the PBS control.
# [2] = huApoB+/−huCETP+/−mLDLr+/− mice (Groups B-E), ASO 25 mg/kg s.c. twice/week, Week 0
# [3] = huApoB+/−huCETP+/−mLDLr+/− mice (Groups B-E), ASO 25 mg/kg s.c. twice/week, Week 3
# [4] = huApoB+/−huCETP+/−mLDLr+/− mice (Groups B-E), ASO 25 mg/kg s.c. twice/week, Week 6
# [5] = huApoB+/−huCETP−/−mLDLr+/− mice (Group F), 25 mg/kg s.c. twice/week, Week 0
# [6] = huApoB+/−huCETP−/−mLDLr+/− mice (Group F), 25 mg/kg s.c. twice/week, Week 3
# [7] = huApoB+/−huCETP−/−mLDLr+/− mice (Group F), 25 mg/kg s.c. twice/week, Week 6
substance,measurement,setting,value
"ISIS 141923: CCTTCCCTGAAGGTTCCTCC, 5-10-5 MOE gapmer, a control oligonucleotide which has no known murine target (sugars from the 5' end e5 d10 e5, backbone and methylation of C not given here) [reference compound]",% HDL/total cholesterol,[1]; [2],25%
same,HDL cholesterol levels,[1]; [2],50 mg/dL
same,LDL cholesterol levels,[1]; [2],123 mg/dL
same,Total cholesterol levels,[1]; [2],201 mg/dL
same,Triglyceride levels,[1]; [2],137 mg/dL
same,% HDL/total cholesterol,[1]; [3],24%
same,HDL cholesterol levels,[1]; [3],55 mg/dL
same,LDL cholesterol levels,[1]; [3],149 mg/dL
same,Total cholesterol levels,[1]; [3],228 mg/dL
same,Triglyceride levels,[1]; [3],177 mg/dL
same,% HDL/total cholesterol,[1]; [4],31%
same,HDL cholesterol levels,[1]; [4],74 mg/dL
same,LDL cholesterol levels,[1]; [4],150 mg/dL
same,Total cholesterol levels,[1]; [4],235 mg/dL
same,Triglyceride levels,[1]; [4],192 mg/dL
same,"Percent inhibition of liver CETP mRNA expression, PPset hCETP",CETP mRNA; Dose 50 mg/kg/wk,0%
same,"Percent inhibition of liver CETP mRNA expression, PPset hCETP2_LTS00182",CETP mRNA; Dose 50 mg/kg/wk,0%
same,"Percent inhibition of liver mRNA expression, ABCA1",ABCA1; Dose 50 mg/kg/wk,+16%
same,Percent inhibition of plasma CETP protein levels,CETP protein; Dose 50 mg/kg/wk,7%
"ISIS 349511: 5-10-5 MOE gapmer CCCGACCTCCTTGGAGACTT (sugars from the 5' end e5 d10 e5, backbone and methylation of C not given here)",% HDL/total cholesterol,[1]; [2],24%
same,HDL cholesterol levels,[1]; [2],49 mg/dL
same,LDL cholesterol levels,[1]; [2],129 mg/dL
same,Total cholesterol levels,[1]; [2],208 mg/dL
same,Triglyceride levels,[1]; [2],145 mg/dL
same,% HDL/total cholesterol,[1]; [3],30%
same,HDL cholesterol levels,[1]; [3],64 mg/dL
same,LDL cholesterol levels,[1]; [3],126 mg/dL
same,Total cholesterol levels,[1]; [3],212 mg/dL
same,Triglyceride levels,[1]; [3],199 mg/dL
same,% HDL/total cholesterol,[1]; [4],35%
same,HDL cholesterol levels,[1]; [4],77 mg/dL
same,LDL cholesterol levels,[1]; [4],132 mg/dL
same,Total cholesterol levels,[1]; [4],223 mg/dL
same,Triglyceride levels,[1]; [4],248 mg/dL
"ISIS 349517: 5-10-5 MOE gapmer CAGCACTTTAATGCCAGTGG (sugars from the 5' end e5 d10 e5, backbone and methylation of C not given here)",% HDL/total cholesterol,[1]; [2],25%
same,HDL cholesterol levels,[1]; [2],48 mg/dL
same,LDL cholesterol levels,[1]; [2],116 mg/dL
same,Total cholesterol levels,[1]; [2],193 mg/dL
same,Triglyceride levels,[1]; [2],142 mg/dL
same,% HDL/total cholesterol,[1]; [3],40%
same,HDL cholesterol levels,[1]; [3],68 mg/dL
same,LDL cholesterol levels,[1]; [3],87 mg/dL
same,Total cholesterol levels,[1]; [3],171 mg/dL
same,Triglyceride levels,[1]; [3],177 mg/dL
same,% HDL/total cholesterol,[1]; [4],37%
same,HDL cholesterol levels,[1]; [4],72 mg/dL
same,LDL cholesterol levels,[1]; [4],109 mg/dL
same,Total cholesterol levels,[1]; [4],197 mg/dL
same,Triglyceride levels,[1]; [4],210 mg/dL
same,% HDL/total cholesterol,[1]; [5],41%
same,HDL cholesterol levels,[1]; [5],65 mg/dL
same,LDL cholesterol levels,[1]; [5],73 mg/dL
same,Total cholesterol levels,[1]; [5],158 mg/dL
same,Triglyceride levels,[1]; [5],150 mg/dL
same,% HDL/total cholesterol,[1]; [6],37%
same,HDL cholesterol levels,[1]; [6],65 mg/dL
same,LDL cholesterol levels,[1]; [6],91 mg/dL
same,Total cholesterol levels,[1]; [6],175 mg/dL
same,Triglyceride levels,[1]; [6],213 mg/dL
same,% HDL/total cholesterol,[1]; [7],42%
same,HDL cholesterol levels,[1]; [7],75 mg/dL
same,LDL cholesterol levels,[1]; [7],95 mg/dL
same,Total cholesterol levels,[1]; [7],177 mg/dL
same,Triglyceride levels,[1]; [7],201 mg/dL
same,"Percent inhibition of liver CETP mRNA expression, PPset hCETP",CETP mRNA; Dose 1.5 mg/kg/wk,59%
same,"Percent inhibition of liver CETP mRNA expression, PPset hCETP2_LTS00182",CETP mRNA; Dose 1.5 mg/kg/wk,59%
same,"Percent inhibition of liver CETP mRNA expression, PPset hCETP",CETP mRNA; Dose 5 mg/kg/wk,87%
same,"Percent inhibition of liver CETP mRNA expression, PPset hCETP2_LTS00182",CETP mRNA; Dose 5 mg/kg/wk,87%
same,"Percent inhibition of liver CETP mRNA expression, PPset hCETP",CETP mRNA; Dose 15 mg/kg/wk,91%
same,"Percent inhibition of liver CETP mRNA expression, PPset hCETP2_LTS00182",CETP mRNA; Dose 15 mg/kg/wk,95%
same,"Percent inhibition of liver CETP mRNA expression, PPset hCETP",CETP mRNA; Dose 50 mg/kg/wk,92%
same,"Percent inhibition of liver CETP mRNA expression, PPset hCETP2_LTS00182",CETP mRNA; Dose 50 mg/kg/wk,96%
same,"Percent inhibition of liver mRNA expression, ABCA1",ABCA1; Dose 1.5 mg/kg/wk,+6%
same,"Percent inhibition of liver mRNA expression, ABCA1",ABCA1; Dose 5 mg/kg/wk,+15%
same,"Percent inhibition of liver mRNA expression, ABCA1",ABCA1; Dose 15 mg/kg/wk,−6%
same,"Percent inhibition of liver mRNA expression, ABCA1",ABCA1; Dose 50 mg/kg/wk,−15%
same,Percent inhibition of plasma CETP protein levels,CETP protein; Dose 1.5 mg/kg/wk,58%
same,Percent inhibition of plasma CETP protein levels,CETP protein; Dose 5 mg/kg/wk,74%
same,Percent inhibition of plasma CETP protein levels,CETP protein; Dose 15 mg/kg/wk,81%
same,Percent inhibition of plasma CETP protein levels,CETP protein; Dose 50 mg/kg/wk,80%

# — patent US20130053430A1, “MODULATION OF CETP EXPRESSION” (Isis Pharmaceuticals, Inc., priority 2010, published 2013)
